Patent publication US20180078576A1, “SULPHATED XYLANS FOR TREATMENT OR PROPHYLAXIS OF RESPIRATORY DISEASES” (Paradigm Biopharmaceuticals Limited, priority 2007, published 2018)
pIC50: −log10 of the molar value.

Tests used:
[1] = biological target: T1, recombinant human IL-4 (rhIL-4) (Homo sapiens, UniProt P05112); assay: BIAcore inhibition of IL-4 binding to immobilized heparin; conditions: BIAcore chip, titration, FIG. 3A
T1 construct: made in house; host or cells: baculovirus expression system
T1 sequence (P05112 25-153): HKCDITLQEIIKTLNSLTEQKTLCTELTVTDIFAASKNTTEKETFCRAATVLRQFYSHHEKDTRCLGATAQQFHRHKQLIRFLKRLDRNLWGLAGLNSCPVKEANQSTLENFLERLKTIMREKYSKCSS
Excerpt: The optical phenomenon of surface plasmon resonance is used to monitor physical interactions between molecules. Passing a solution of a potential protein ligand (e.g. IL-4, IL-5 or eotaxin) over a sensor surface to which a target (e.g. heparin) is coupled monitors the real-time binding of protein ligands to the immobilized target. Detection is achieved by measuring refractive index changes very close to the sensor surface. When the refractive index is altered, the angle at which plasmon resonance occurs changes and this change directly correlates with the amount of protein interacting with the surface. A BIAcore 2000 is conveniently used. […]
Biotinylated heparin is immobilized on the biosensor chip. […] Solutions containing potential protein ligands of interest are injected over the sensor chip surface, and the binding is measured in real time (Fernig, In: Proteoglycan protocols, Ed. R. V. Iozzo, Humana Press, Totowa, N.J., USA, 2001). Baculovirus expressed recombinant human IL-4 (rhIL-4) and baculovirus expressed recombinant human IL-5 (rhIL-5) readily bind to heparin immobilized by this method (see PCT/AU2005/000551). […] Similarly, recombinant human eotaxin (CCL11) expressed in E. coli binds readily to immobilized heparin and binding is specific as there is little eotaxin binding to sensor chips lacking heparin. […]

[2] = system: Guinea pigs sensitized to OVA and challenged with inhaled OVA; assay: Second guinea pig asthma model, parameters 8 hours after OVA inhalation; format: in vivo
Experimental: A slightly different animal model was also examined. In this model Guinea pigs were sensitized to OVA twice by an intraperitoneal injection of 0.5 ml saline containing 20 mg Al(OH)3 and 20 μg OVA. The sensitizations are performed on days 0 and 7. Three weeks after the last sensitization, animals were pre-treated with either vehicle or drugs 30 min prior to inhalation of OVA (at 10 mg/ml) for 6 min (allergen challenge). For the negative control, animals received either sensitization and challenge with saline or sensitization with saline and challenge with OVA. Animals were terminated and all parameters measured 8 hours after the provocation. Vehicle or drugs were administered intra-tracheally, 1 ml/kg body weight, 30 min before the intra-tracheal challenge with OVA. The vehicle for compounds was saline. Budesonide as the reference compound was dissolved in the vehicle at concentrations of 1 mg/ml. To measure airway resistance (RL.) and lung compliance (Cdyn) bronchoconstriction was evoked with aerosolized methacholine (3 mg/ml, 10 mg/ml and 30 mg/ml). The difference between baseline readings and that obtained after methacholine were used to calculate Cdyn and RL. Bronchoalveolar lavage (BAL) was performed immediately after the lung function measurements. BAL was analysed for protein content (as a measure of leakage) and leukocyte number, differential cell counts were performed to indicate what subsets of leukocytes were best affected by the drugs.

human MCP-1 = human MCP-1 (Homo sapiens, UniProt P13500); assay: MCP-1 induced migration of THP-1 cells (chemotaxis); format: cell-based; conditions: 50 μg/ml, MCP-1 10 ng/ml
human MCP-1, sequence (P13500 24-99): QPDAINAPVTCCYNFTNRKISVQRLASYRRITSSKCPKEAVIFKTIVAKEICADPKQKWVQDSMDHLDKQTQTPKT
Experimental: These cells were originally derived from the peripheral blood of a patient with acute monocytic leukaemia. The assay was very similar to that described above. The chemotaxis assays were performed in 96-well Costar chemotaxis plates and human MCP-1 (+/−inhibitor) was added to the bottom chamber and the THP-1 cells in RPMI/1% FCS were added to the top chamber and the plate was incubated at 37° C. for 2.5 hour to allow cells to move from the top chamber into the bottom. The number of cells migrating into the bottom chamber was quantified by labeling with AQUEOUS ONE (30 μl/well) for 4 hours before absorbance at 490 run is read. MCP-1 was used at a final concentration of 10 ng/ml and the inhibitors were the sulfated xylan pentasaccharide (10 and 50 μg/ml) and PPS (10 and 50 μg/ml). In these experiments both PPS and the sulfated xylan pentasaccharide were effective, but PPS was a better inhibitor (FIG. 18) as at 50 μg/ml PPS inhibited cell movement by 89% whereas at the same concentration the sulfated xylan pentasaccharide cell movement by 53%.

- pIC50 [1]: 7.10 to 7.60
- Inhibition of cell movement induced by MCP-1 (human MCP-1): 89%
Substance: Pentosan polysulfate [PPS]
- Inhibition of RL (airway resistance) ([2]; 0.5 mg/kg, FIG. 15A): 103%
- Inhibition of RL (airway resistance) ([2]; 2.4 mg/kg, FIG. 15A): 94%
- Inhibition of RL (airway resistance) ([2]; 10 mg/kg, FIG. 15A): 100%
- Total number of infiltrating leukocytes in the bronchoalveolar fluid (in words) ([2]; 0.1, 0.5, 2.5, 10 mg/kg intra-tracheal, FIG. 14B): significantly reduced
- Total protein content in the bronchoalveolar fluid ([2]; 0.1, 0.5, 2.5, 10 mg/kg intra-tracheal, all except 0.1 mg/kg significant (P<0.05), dose dependent, FIG. 14A): significantly reduced
- Inhibitory effect on RL (airway resistance) ([2]; all doses, after 10 mg/ml methacholine, FIG. 15A): more than 90%
- Effect on alterations of lung compliance (Cdyn) ([2]; represented as an increase in lung compliance, FIG. 15B): Inhibitory effects
